From patent publication US6103709A (priority 1998, dated 2000)

Experiments:
VDRnuc = experiment: Genomic response (summary classification); details: Yes/No, Tables 1 and 6
rapid responses (VDRmem) = experiment: Antagonist function (summary classification); details: Yes/No, Tables 1 and 6
VDRmem = experiment: Rapid response (summary classification); details: for Rapid Response: Yes/No, Tables 1 and 6
[1] = biological target: T1, human vitamin D-binding protein (hDBP) (Homo sapiens, UniProt P02774); experiment: Relative Competitive Index assay, vitamin D-binding protein; details: for Vit D Binding Protein (RCI): RCI of 1α,25(OH)2 D3 set to 100, 4° C., pH 7.4; for Binding to DBP relative to 1α,25(OH)2 D3 (RCI, FIG. 7): 1α,25(OH)2 D3 = 100%, mean of three determinations; for DBP binding (in words): compared with 1α,25(OH)2 D3
T1 sequence (P02774 17-474): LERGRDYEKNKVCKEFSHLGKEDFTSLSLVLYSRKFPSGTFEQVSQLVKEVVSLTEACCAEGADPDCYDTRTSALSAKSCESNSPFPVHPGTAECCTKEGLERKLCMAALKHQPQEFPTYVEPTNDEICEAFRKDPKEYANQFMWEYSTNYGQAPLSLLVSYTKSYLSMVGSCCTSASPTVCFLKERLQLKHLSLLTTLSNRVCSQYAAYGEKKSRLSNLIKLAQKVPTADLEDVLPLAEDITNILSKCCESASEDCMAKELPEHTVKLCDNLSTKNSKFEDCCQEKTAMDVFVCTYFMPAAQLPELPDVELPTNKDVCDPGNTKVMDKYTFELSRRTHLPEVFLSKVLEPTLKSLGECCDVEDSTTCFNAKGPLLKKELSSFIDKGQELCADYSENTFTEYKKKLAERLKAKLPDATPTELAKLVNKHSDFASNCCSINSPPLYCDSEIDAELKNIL
Source text: The compared analogs are 14α,15α-methano-1α,25(OH)2 D3 (LO), 22(m(dimethylhydroxymethyl)phenyl)-23,24,25,26,27-pentanor-1α- OH-D3 (EV) and (22R)-1,25(OH)2 -22,23,diene-D3 (HR), all conformationally flexible genomic agonists. By definition the RCI for 1α,25(OH)2 D3 is set to 100%. The data seen in FIG. 7 represent the mean of three determinations.
Vitamin D-Binding Protein Assay Relative Competitive Index
This example describes a Relative Competitive Index Assay used for determination of analogs binding affinity to vitamin D-binding protein.
Phase separation was then obtained by the addition of 0.5 ml of cold dextran-coated charcoal.
The data was plotted as [competitor]/[[^3 H]25(OH)D3 ] vs. 1/[fraction bound]. The RCI was calculated as [slope of competitor]/[slopefor 25(OH)D3 ]×100. Results are seen in FIG. 7. Although each analog was assayed in competition with [^3 H]25(OH)D3, the data are expressed as relative to the binding of 1α,25(OH)2 D3, with its RCI set to 100.

[2] = system: vitamin D-deficient chick; experiment: Bone Ca2+ mobilizing activity (BCM) in vitamin D-deficient chick; format: in vivo; details: i.m.; for Classic Vit D Responses BCM: relative to 100 pmol 1α,25(OH)2 D3 = 100%, 12 h before assay; for BCM (in words): vitamin D-deficient chick
Description: The bone calcium mobilizing (BCM) assay is also conducted in the vitamin D-deficient chick. The BCM assay determines the relative ability of the tested analog to mobilize bone calcium. The natural hormone 1α,25(OH)2 D3 is very potent in the BCM assay. For example, when 1α,25(OH)2 D3 in inappropriate amounts are used as a drug in human patients, the patient may become hypercalcemic and eventually hypercalciuria with nephrolithiasis and renal failure may develop. The BCM assay was used to determine the relative activity of the analogs of the invention to stimulate bone Ca^2+ mobilization.
(§1) Results of the testing of the analogs of the invention in vivo by the ICA and IBM assays are shown in FIG. 9 which illustrates the capability of analogs LO, EV and HR to stimulate intestinal Ca^2+ absorption (ICA) and bone Ca^2+ mobilizing activity (BCM). In this study, the analogs of 1α,25(OH) were given i.m. to vitamin D-deficient chicks 12 hours before the assay began. The activity produced by 100 pmol of 1α,25(OH)2 D3 was set to be 100% for both ICA and BCM. The dose of the analogs required to achieve a biological response for either ICA or BCM equivalent to the 100 pmol dose of 1α,25(OH)2 D3 was calculated and converted to a percentage. Results are expressed as mean +SE of groups of seven chicks. Each assay included a negative control (-D), that is no vitamin D was present, and a positive control, where vitamin D3 (+D3) was present in 3.25 nmol. […] 1α,25(OH)2 D3 and analogs LO [14α,15α-methano-1α,25(OH)2 D3 ], EV [22-(m(dimethylhydroxymethyl)phenyl)-23,24,25,26,27-pentanor-1α-OH-D3 ] and HR [(22R)-1,25(OH)2 -22,23-diene-D3 ] were administered in 0.0065, 0.065, 0.65 and 6.5 nmol as shown.
(§2) In Vivo Assays of Intestinal Calcium Absorption and Bone Calcium Mobilization
(§3) This example describes assays used for determination of analogs biological activity in intestinal calcium absorption (ICA) and bone calcium mobilization (BCM) assays.
(§4) ICA and BCM were measured in vivo in the vitamin D-deficient chick model system according to Biochem. Pharmacol., 18: 2347 (1969).
(§5) Twelve hours before assay, the chickens, which had been placed on a zero-calcium diet 48 h before assay, were injected intramuscularly with the vitamin metabolite 1α,25(OH)2 D3 or analog (1-10,000 pmoles) dissolved in 0.1 mL of ethanol/1,2-propanediol (1:1, v/v). At the time of assay, 4.0 mg of ^40 Ca^2+ +5 μCi of ^45 Ca^2+ (New England Nuclear) were placed in the duodenum of the birds lightly anesthetized with ether. After 30 min, the birds were decapitated and the blood was collected.
BCM activity was estimated from the increase of total serum calcium concentration, as determined by atomic absorption spectrophotometry.

[3] = system: vitamin D-deficient chick; experiment: Intestinal Ca2+ absorption (ICA) in vitamin D-deficient chick; format: in vivo; details: i.m.; for Classic Vit D Responses ICA: relative to 100 pmol 1α,25(OH)2 D3 = 100%, 12 h before assay; for ICA (in words): vitamin D-deficient chick
Description: A primary fundamental physiological property of vitamin D and particularly 1α,25(OH)2 D3 is its ability to stimulate the intestinal absorption of calcium and facilitate the availability of dietary calcium to the organism. Intestinal absorption of the calcium is measured by the intestinal calcium absorption (ICA) assay, developed in the model of vitamin-D deficient chicks. The ICA assay was used to determine the relative capability of the tested analog to stimulate intestinal Ca^2+ absorption.
as §1, §2, §3, §4, §5
The radioactivity content, which is a measure of ICA, of 0.2 mL of serum was measured in a liquid scintillation counter (Beckman LS8000) to determine the amount of ^45 Ca^2+ absorbed.

| SMILES | Vit D Binding Protein (RCI) [1] | Binding to DBP relative to 1α,25(OH)2 D3 (RCI, FIG. 7) [1] [%] | Genomic Response (VDRnuc) | Antagonist (rapid responses (VDRmem)) | Rapid Response (VDRmem) | Classic Vit D Responses BCM [2] [%] | BCM (in words) [2] | Classic Vit D Responses ICA [3] [%] | ICA (in words) [3] | DBP binding (in words) [1] | genomic and/or rapid responses elicited (in words) (VDRmem) |
| --- | --- | --- | --- | --- | --- | --- | --- | --- | --- | --- | --- |
| CC1=C(/C=C\C2=CCC[C@@]3(C)[C@@H]2CC[C@@H]3[C@H](C)CCCC(C)(C)O)C[C@@H](O)C[C@@H]1O [GF] | 2 | – | Yes | No | Yes | < 0.1 | – | 1.5 | – | lower than 1α,25(OH)2 D3 | – |
| C=C1/C(=C\C=C2/CCC[C@]3(C)[C@@H]([C@H](C)CCCC(C)(C)O)CC[C@@H]23)C[C@@H](O)C[C@H]1O [HL] | – | – | No | Yes and blocks or inhibits the action of agonist for rapid responses | No | < 0.3 | – | < 0.1 | – | – | – |
| C[C@H](CCCC(C)(C)O)[C@H]1CC[C@H]2C3=CC=C4C[C@@H](O)C[C@H](O)[C@]4(C)[C@H]3CC[C@]12C [JM] | -0.3 | – | No | No | Yes | 0.8 | – | 1.8 | – | lower than 1α,25(OH)2 D3 | elicit solely rapid responses |
| C[C@H](CCCC(C)(C)O)[C@H]1CC[C@H]2C3=CC=C4C[C@@H](O)C[C@H](O)[C@@]4(C)[C@@H]3CC[C@]12C [JN] | -0.7 | – | No | No | Yes | 1.0 | – | 2.1 | – | lower than 1α,25(OH)2 D3 | elicit solely rapid responses |

Further lines, with some results ahead:

| Vit D Binding Protein (RCI) [1] | Binding to DBP relative to 1α,25(OH)2 D3 (RCI, FIG. 7) [1] [%] | SMILES | Genomic Response (VDRnuc) | Antagonist (rapid responses (VDRmem)) | Rapid Response (VDRmem) | Classic Vit D Responses BCM [2] [%] | BCM (in words) [2] | Classic Vit D Responses ICA [3] [%] | ICA (in words) [3] | DBP binding (in words) [1] | genomic and/or rapid responses elicited (in words) (VDRmem) |
| --- | --- | --- | --- | --- | --- | --- | --- | --- | --- | --- | --- |
| 980 | – | C=C1/C(=C\C=C2/CCC[C@]3(C)[C@@H]([C@H](C)Cc4cccc(O)c4)CC[C@@H]23)C[C@@H](O)C[C@@H]1O [DE] | Yes | No | Yes | 1.0 | show stimulating activity in both ICA and BCM assays | 0.3 | show stimulating activity in both ICA and BCM assays | – | – |
| 1980 | – | C=C1/C(=C\C=C2/CCC[C@]3(C)[C@@H]([C@H](C)Cc4ccc(O)cc4)CC[C@@H]23)C[C@@H](O)C[C@@H]1O [DF] | Yes | No | Yes | 0.08 | – | 0.04 | – | – | – |
| 25 | 25 | C=C1/C(=C\C=C2/CCC[C@]3(C)[C@@H]([C@H](C)Cc4cccc(C(C)(C)O)c4)CC[C@@H]23)C[C@@H](O)C[C@@H]1O [EV] | Yes | No | Yes | 8 | show stimulating activity in both ICA and BCM assays | 30 | show stimulating activity in both ICA and BCM assays | lower than 1α,25(OH)2 D3 | – |
| 11 | – | C=C1/C(=C\C=C2/CCC[C@]3(C)[C@@H]([C@H](C)C=C=CC(C)(C)O)CC[C@@H]23)C[C@@H](O)C[C@@H]1O [HQ] | Yes | No | Yes | 1.0 | – | 2.5 | – | lower than 1α,25(OH)2 D3 | – |
| 48 | 48 | C=C1/C(=C\C=C2/CCC[C@]3(C)[C@@H]([C@H](C)C=C=CC(C)(C)O)CC[C@@H]23)C[C@@H](O)C[C@@H]1O [HR] | Yes | No | Yes | 0.6 | – | 12 | – | lower than 1α,25(OH)2 D3 | – |
